# Data: ChEMBL document CHEMBL1921769, “Synthesis and docking study of 2-phenylaminopyrimidine Abl tyrosine kinase inhibitors” (Bioorg Med Chem Lett, 2011)
# Target: Tyrosine-protein kinase ABL1 (Homo sapiens, UniProt P00519)
# Test: Inhibition of Abl using DAIpYAAPFAKKK phosphopeptide as substrate by MALDI-MS analysis
# Sequence of Tyrosine-protein kinase ABL1 (P00519 whole entry): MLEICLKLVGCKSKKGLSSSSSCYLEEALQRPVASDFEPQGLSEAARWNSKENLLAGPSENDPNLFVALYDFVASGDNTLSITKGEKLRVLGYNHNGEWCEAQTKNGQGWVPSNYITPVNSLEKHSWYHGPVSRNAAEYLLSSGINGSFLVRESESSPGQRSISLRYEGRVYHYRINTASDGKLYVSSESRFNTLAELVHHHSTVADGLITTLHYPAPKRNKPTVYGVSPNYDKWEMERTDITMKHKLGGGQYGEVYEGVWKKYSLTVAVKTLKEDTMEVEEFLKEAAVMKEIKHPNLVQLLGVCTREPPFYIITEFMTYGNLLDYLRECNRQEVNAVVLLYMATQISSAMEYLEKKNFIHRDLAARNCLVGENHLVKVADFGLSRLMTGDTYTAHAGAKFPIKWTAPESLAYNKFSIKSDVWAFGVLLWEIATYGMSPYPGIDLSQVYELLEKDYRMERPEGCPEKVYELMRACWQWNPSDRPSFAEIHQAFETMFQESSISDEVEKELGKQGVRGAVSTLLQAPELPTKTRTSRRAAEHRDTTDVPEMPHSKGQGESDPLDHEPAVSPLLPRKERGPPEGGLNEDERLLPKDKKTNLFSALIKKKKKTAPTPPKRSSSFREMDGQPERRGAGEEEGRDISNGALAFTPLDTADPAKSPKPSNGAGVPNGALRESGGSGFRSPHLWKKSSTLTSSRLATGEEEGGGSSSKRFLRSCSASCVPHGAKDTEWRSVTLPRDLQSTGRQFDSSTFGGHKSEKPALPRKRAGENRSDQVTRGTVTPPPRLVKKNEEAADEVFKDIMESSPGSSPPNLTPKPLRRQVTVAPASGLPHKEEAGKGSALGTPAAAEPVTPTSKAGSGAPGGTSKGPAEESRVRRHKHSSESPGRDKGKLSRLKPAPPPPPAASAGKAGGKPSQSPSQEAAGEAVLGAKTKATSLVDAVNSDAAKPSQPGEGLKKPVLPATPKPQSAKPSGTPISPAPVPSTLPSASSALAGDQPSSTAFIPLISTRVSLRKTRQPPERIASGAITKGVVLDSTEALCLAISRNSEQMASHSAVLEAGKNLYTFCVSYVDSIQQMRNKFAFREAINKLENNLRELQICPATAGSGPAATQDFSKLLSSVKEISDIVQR
row,Compound,IC50 [µM]
1,CSc1cccc(C(=O)Nc2ccc(C)c(Nc3nccc(-c4cccnc4)n3)c2)c1,1.1
2,Cc1ccc(NC(=O)c2ccccc2)cc1Nc1nccc(-c2cccnc2)n1,12.7
3,Cc1ccc(NC(=O)c2ccc(N)c(N)c2)cc1Nc1nccc(-c2cccnc2)n1,> 25
